Experiments:
Phenylquinone Writhing = test: Drug effects in phenylquinone-induced writhing in mice; assay type: in vivo, Male Swiss albino mice; conditions: p.o., mouse, 60 min before phenylquinone i.p., writhes counted 15 min
Experimental: A further test used to determine the utility of the compounds of the present invention is designated: DRUG EFFECTS IN PHENYLQUINONE-INDUCED WRITHING IN MICE.
The objective of this test is to determine the ability of test drugs to inhibit the nociceptive (pain) response of mice injected with a chemical irritant. This test is a primary screen for both peripheral and centrally acting analgesic drugs.
Male Swiss albino mice (15-25 g). The animals are fasted for 18 hours prior to use but have free access to water.
Drug Preparation and Administration:
Drugs are dissolved or suspended according to their solubility in 0.5% methyl cellulose or 0.5% Tween 80. They are administered by gastric lavage in a volume of 5 ml/kg. For primary screening all drugs are administered at the arbitrary dosage of 200 mg/kg, p.o. to a group of 10 mice.
A modification of the method of Siegmund et al., Proc. Soc. Exp. Biol. Med., 95, 729-731 (1957) is used. Groups of 5 mice are dosed with the test compound or vehicle control. Sixty minutes later the animals are injected i.p. with 0.3 ml/20 g body weight of a 0.02% solution of phenylquinone (PBQ; 2-phenyl-1,4-benzoquinone) and placed in individual observation boxes. The number of writhing or abdominal squirming movements made by each mouse during the following 15 min. period is counted. The experiment is repeated with another group of 5 mice and the mean number of writhes per mouse for a group of 10 mice is calculated.
Drug treated and vehicle-treated control groups are compared and the percentage protection conferred by the drug is calculated: [formula] where c=mean number of writhes in the control group where t=mean number of writhes in the test drug group

Adjuvant Edema = test: Preventative Adjuvant Edema (Freund's complete adjuvant, hind paw edema volume in rats); assay type: in vivo, Male Sprague Dawley rats; conditions: p.o., rat, dosed day 0, 1 and 2, edema volume day 3
Experimental: This test is a primary screen for anti-inflammatory drugs.
Male Sprague Dawley rats (180-200 g) are used. The animals have free access water but food is withdrawn 18 hours before testing.
Drug Preparations and Administration:
Freund's complete adjuvant is prepared by suspending 5 mg killed and dried Mycobacterium butyricum (Difco) in 1 ml liquid paraffin. The test compounds are dissolved in distilled water or suspended in distilled water with a few drops of Tween 80 according to their solubility. […]
The method is essentially that described by Wax et al., J. Pharmacol. Exp. Ther., 192, 166-171 (1975). Groups of rats are injected intradermally in the left hind paw with 0.1 ml of Freund's complete adjuvant. The test compound or vehicle is administered immediately before the adjuvant, 24 hours and 48 hours after the adjuvant (day 0, 1 and 2). The injected hind paw volume is measured before the injection of adjuvant and 24 hrs. after the last drug administration (day 3) by means of a plethysmometer (Buxco Electronics Inc.). The difference between the hind paw volume on day 0 and day 3 represents the edema volume. Phenylbutazone (50 mg./kg, p.o.) is included as a positive control.
The mean edema volume (expressed as ml±SEM) is calculated for each group and the percentage protection conferred by the drug is calculated: [formula] where c is the mean edema volume for the untreated controls and t is the mean edema volume for the drug treated group.

SMILES | % Inhibition (Phenylquinone Writhing in Mice) (Phenylquinone Writhing; 25 mg/kg) [%] | % Inhibition (Preventative Adjuvant Edema) (Adjuvant Edema; 25 mg/kg) [%] | % Inhibition (Phenylquinone Writhing in Mice) (Phenylquinone Writhing; 200 mg/kg) [%] | % Inhibition (Preventative Adjuvant Edema) (Adjuvant Edema; 50 mg/kg) [%]
C=CC1CCC(CC)(CC(=O)O)c2[nH]c3c(CC)cccc3c21 (single isomer, unassigned) [Example 1 g, 4-Ethenyl-1,8-diethyl-2,3,4,9-tetrahydro-1H-carbazole-1-acetic Acid] | 21 | 30 | – | –
C=CC1CCC(CC)(CC(=O)O)c2[nH]c3c(CC)cccc3c21 (single isomer, unassigned) [Example 1 h, 4-Ethenyl-1,8-diethyl-2,3,4,9-tetrahydro-1H-carbazole-1-acetic Acid] | 0 | 62 | – | –
CCc1cccc2c3c([nH]c12)C(CC)(CC(=O)O)CCC3c1ccccc1 (single isomer, unassigned) [Example 2 d, 1,8-Diethyl-2,3,4,9-tetrahydro-4-phenyl-1H-carbazole-1-acetic Acid] | 17 | 12 | – | –
CCc1cccc2c3c([nH]c12)C(CC)(CC(=O)O)CCC3c1ccccc1 (single isomer, unassigned) [Example 2 e, 1,8-Diethyl-2,3,4,9-tetrahydro-4-phenyl-1H-carbazole-1-acetic acid] | 28 | 37 | – | –
C=C(C)C1CCC(CC)(CC(=O)O)c2[nH]c3c(CC)cccc3c21 (single isomer, unassigned) [Example 3 d, 4-(1-Methylethenyl)-1,8-diethyl-2,3,4,9-tetrahydro-1H-carbazole-1-acetic Acid] | – | – | 50 | 25
C=C(C)C1CCC(CC)(CC(=O)O)c2[nH]c3c(CC)cccc3c21 (single isomer, unassigned) [Example 3 e, 4-(1-Methylethenyl)-1,8-diethyl-2,3,4,9-tetrahydro-1H-carbazole-1-acetic Acid] | 0 | 46 | – | –
